# Experimental data from ChEMBL document CHEMBL4813963, “Discovery of pyrazolo-thieno[3,2-d]pyrimidinylamino-phenyl acetamides as type-II pan-tropomyosin receptor kinase (TRK) inhibitors: Design, synthesis, and biological evaluation” (Eur J Med Chem, 2021).
# Legend:
# [1] = tested on: KM12; test: Cytotoxicity against human KM12 cells assessed as reduction in cell viability incubated for 72 hrs by resazurin based assay; format: functional; conditions: KM12, 72 h
# [2] = Permeability of compound in human brain like endothelial cells BBB model at 10 uM after 120 mins by LC-MS analysis; format: ADME, cell-based; conditions: read-out: permeability (converted)
# [3] = target: T1, High affinity nerve growth factor receptor (Homo sapiens, UniProt P04629); test: Inhibition of recombinant His-tagged human TRKA (441 to 796 residues) expressed in baculovirus expression system using 5-FAM-EEPLYWSFPAKKK-CONH2 as substrate preincubated for 1 hr followed by substrate addition in presence of ATP by mobility shift assay
# Target sequence in this assay (P04629 whole entry, the tested form may be a part): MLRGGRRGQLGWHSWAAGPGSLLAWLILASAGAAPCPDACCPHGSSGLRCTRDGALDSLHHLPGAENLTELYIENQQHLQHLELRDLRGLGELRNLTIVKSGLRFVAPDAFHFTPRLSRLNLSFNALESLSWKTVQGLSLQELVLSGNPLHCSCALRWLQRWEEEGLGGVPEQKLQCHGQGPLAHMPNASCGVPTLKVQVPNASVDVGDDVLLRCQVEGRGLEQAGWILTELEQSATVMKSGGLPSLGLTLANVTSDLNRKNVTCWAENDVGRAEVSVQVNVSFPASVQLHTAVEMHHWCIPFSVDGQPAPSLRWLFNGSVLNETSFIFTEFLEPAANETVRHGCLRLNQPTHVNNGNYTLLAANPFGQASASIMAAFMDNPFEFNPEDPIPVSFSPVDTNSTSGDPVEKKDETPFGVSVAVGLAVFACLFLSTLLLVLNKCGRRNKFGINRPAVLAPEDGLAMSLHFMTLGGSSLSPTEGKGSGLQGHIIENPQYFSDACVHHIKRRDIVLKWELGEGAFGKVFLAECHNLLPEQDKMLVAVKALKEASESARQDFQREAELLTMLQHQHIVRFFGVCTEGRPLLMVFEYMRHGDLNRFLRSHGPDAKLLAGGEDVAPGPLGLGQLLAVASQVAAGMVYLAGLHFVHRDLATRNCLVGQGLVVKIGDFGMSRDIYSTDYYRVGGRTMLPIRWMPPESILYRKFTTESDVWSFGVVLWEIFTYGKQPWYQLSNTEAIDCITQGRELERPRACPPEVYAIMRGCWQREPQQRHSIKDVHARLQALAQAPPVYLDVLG
# [4] = target: Aurora kinase A (Homo sapiens, UniProt O14965); test: Inhibition of Aurora A (unknown origin)
# Sequence of Aurora kinase A (O14965 whole entry): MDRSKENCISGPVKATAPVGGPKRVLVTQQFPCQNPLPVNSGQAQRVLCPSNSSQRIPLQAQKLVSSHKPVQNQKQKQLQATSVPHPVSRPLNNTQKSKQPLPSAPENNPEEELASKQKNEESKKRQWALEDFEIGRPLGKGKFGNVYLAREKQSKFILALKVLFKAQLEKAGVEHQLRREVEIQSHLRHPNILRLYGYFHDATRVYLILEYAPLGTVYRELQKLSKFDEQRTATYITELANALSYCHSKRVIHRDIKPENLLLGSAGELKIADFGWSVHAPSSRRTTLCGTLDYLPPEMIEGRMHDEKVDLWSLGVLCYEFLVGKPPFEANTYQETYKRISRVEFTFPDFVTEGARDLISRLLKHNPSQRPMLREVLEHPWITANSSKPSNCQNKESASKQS
# [5] = target: Aurora kinase B (Homo sapiens, UniProt Q96GD4); test: Inhibition of Aurora B (unknown origin)
# Sequence of Aurora kinase B (Q96GD4 whole entry): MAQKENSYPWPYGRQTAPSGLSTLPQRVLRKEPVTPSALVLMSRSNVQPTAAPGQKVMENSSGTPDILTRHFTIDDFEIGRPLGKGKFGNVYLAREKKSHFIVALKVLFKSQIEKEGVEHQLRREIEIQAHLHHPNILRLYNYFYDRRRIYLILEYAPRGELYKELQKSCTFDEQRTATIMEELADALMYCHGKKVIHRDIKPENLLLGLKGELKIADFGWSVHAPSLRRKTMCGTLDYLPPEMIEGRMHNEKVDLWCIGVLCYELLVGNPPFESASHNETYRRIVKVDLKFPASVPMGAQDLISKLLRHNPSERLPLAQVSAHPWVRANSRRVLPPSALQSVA
# [6] = target: Macrophage colony-stimulating factor 1 receptor (Homo sapiens, UniProt P07333); test: Inhibition of CSF1R (unknown origin)
# Sequence of Macrophage colony-stimulating factor 1 receptor (P07333 whole entry): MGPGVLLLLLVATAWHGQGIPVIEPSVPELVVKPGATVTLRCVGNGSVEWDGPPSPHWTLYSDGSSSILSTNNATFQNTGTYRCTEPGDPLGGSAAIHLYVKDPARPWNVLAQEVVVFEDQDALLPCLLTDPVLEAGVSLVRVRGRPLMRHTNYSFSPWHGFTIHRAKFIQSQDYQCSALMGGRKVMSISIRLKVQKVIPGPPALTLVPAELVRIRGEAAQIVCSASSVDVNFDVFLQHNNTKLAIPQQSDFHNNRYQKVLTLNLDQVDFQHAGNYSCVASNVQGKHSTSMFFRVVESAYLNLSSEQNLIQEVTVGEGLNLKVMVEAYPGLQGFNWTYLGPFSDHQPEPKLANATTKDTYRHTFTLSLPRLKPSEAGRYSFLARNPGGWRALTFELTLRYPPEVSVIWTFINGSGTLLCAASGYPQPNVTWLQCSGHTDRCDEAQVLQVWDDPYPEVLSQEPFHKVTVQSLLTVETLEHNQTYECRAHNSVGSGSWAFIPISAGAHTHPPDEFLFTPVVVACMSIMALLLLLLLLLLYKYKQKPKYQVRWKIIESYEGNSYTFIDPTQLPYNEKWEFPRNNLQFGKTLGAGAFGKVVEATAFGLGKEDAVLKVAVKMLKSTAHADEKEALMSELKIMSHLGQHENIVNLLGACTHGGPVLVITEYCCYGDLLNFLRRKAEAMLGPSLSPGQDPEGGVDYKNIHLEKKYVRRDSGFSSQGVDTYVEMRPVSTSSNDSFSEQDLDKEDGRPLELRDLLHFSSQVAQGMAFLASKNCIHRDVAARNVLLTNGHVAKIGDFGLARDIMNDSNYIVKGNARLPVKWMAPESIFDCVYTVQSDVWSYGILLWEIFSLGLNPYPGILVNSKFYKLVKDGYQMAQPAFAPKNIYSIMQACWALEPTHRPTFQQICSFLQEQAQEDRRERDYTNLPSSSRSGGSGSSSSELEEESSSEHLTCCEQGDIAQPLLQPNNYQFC
# [7] = target: Epidermal growth factor receptor (Homo sapiens, UniProt P00533); test: Inhibition of EGFR (unknown origin)
# Sequence of Epidermal growth factor receptor (P00533 whole entry): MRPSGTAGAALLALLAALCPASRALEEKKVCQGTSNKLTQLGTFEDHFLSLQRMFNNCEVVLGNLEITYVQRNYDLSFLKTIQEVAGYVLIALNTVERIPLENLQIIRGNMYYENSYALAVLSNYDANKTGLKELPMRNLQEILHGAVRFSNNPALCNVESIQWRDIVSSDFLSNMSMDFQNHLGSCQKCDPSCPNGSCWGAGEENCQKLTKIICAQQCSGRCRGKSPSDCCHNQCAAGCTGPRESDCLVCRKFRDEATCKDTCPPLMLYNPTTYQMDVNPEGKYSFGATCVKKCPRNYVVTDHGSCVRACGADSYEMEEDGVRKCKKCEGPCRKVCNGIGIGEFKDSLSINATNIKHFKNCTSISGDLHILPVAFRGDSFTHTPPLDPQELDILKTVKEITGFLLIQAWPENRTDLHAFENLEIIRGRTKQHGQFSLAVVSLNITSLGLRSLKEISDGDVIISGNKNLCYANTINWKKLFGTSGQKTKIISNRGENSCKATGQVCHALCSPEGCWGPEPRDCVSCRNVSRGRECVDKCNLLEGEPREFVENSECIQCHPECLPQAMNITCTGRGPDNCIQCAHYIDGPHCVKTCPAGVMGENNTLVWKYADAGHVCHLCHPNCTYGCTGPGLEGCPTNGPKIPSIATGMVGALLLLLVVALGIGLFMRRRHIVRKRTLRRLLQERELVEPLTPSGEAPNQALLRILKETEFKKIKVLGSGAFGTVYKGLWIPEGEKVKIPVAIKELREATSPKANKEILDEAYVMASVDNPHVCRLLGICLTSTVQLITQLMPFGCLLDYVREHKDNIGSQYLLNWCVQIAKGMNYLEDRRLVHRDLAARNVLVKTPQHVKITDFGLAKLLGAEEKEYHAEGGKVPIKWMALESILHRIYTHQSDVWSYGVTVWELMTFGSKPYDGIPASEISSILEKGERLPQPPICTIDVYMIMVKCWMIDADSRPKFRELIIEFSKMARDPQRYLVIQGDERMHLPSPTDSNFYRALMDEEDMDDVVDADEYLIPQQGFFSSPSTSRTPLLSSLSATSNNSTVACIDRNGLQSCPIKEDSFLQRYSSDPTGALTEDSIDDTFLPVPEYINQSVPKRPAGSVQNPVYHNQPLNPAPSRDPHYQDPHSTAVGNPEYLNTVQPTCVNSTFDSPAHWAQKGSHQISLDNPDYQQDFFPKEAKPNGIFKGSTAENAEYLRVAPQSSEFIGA
# [8] = target: Serine/threonine-protein kinase Nek2 (Homo sapiens, UniProt P51955); test: Inhibition of NEK2 (unknown origin)
# Sequence of Serine/threonine-protein kinase Nek2 (P51955 whole entry): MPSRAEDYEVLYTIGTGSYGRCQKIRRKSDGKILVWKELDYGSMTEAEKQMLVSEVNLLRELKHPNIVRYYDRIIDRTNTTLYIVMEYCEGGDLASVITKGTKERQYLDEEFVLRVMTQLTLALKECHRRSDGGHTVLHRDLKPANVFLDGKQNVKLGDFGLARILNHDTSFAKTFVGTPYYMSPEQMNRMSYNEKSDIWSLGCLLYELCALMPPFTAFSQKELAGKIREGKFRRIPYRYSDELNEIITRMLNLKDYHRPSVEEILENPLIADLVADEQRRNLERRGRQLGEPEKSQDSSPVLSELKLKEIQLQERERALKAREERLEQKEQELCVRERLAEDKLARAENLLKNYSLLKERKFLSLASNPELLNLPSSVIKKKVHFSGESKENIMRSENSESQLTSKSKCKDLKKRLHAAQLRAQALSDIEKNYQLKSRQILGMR
# [9] = target: Mitogen-activated protein kinase kinase kinase kinase 4 (Homo sapiens, UniProt O95819); test: Inhibition of MAP4K4 (unknown origin)
# [10] = target: T1, High affinity nerve growth factor receptor; test: Inhibition of recombinant His-tagged human TRKA (441 to 796 residues) expressed in baculovirus expression system at 20 uM using 5-FAM-EEPLYWSFPAKKK-CONH2 as substrate preincubated for 1 hr followed by substrate addition in presence of ATP by mobility shift assay relative to control
# Target sequence in this assay (P04629 33-796 limits assumed): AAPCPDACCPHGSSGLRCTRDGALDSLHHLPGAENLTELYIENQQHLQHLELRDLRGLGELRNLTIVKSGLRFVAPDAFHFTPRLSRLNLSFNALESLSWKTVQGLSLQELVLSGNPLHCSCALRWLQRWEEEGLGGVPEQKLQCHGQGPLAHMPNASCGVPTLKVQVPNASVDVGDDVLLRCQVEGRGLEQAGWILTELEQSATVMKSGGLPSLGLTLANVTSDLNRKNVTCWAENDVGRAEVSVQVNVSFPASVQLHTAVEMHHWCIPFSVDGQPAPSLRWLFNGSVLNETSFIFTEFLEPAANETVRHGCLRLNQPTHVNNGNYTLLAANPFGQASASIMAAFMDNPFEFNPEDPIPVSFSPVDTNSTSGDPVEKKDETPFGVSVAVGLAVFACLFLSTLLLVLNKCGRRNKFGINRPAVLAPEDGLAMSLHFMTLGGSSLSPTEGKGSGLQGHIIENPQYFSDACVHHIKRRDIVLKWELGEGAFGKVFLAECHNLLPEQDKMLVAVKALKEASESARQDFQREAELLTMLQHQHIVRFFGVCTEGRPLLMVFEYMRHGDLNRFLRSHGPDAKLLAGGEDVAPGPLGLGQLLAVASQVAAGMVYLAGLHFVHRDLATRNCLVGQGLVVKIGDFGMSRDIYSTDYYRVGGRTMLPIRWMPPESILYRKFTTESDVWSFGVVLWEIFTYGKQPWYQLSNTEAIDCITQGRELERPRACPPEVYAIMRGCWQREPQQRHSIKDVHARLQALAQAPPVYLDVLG
smiles,measurement,setting,value
CN1CCN(c2ccc(C(=O)Nc3n[nH]c4ccc(Cc5cc(F)cc(F)c5)cc34)c(NC3CCOCC3)c2)CC1 [ENTRECTINIB],IC50,[1],0.012 µM
same,"Papp at 2 h, 10 µM",[2],17 ×10⁻⁶ cm/s
O=C(Cc1ccc(Nc2ncnc3ccsc23)cc1)N[C@H]1CCCC[C@@H]1O,IC50,[1],> 200 µM
same,IC50,[3],40.5 µM
Cn1cc(-c2cc3ncnc(Nc4ccc(CC(=O)Nc5cc(C(C)(C)C)nn5C)cc4)c3s2)cn1,IC50,[4],0.893 µM
same,IC50,[5],1.99 µM
same,IC50,[6],13.6 µM
same,"Papp at 2 h, 10 µM",[2],50.5 ×10⁻⁶ cm/s
same,IC50,[7],176 µM
same,IC50,[8],> 200 µM
same,IC50,[9],41.5 µM
C#Cc1cccc(NC(=O)Cc2ccc(Nc3ncnc4ccsc34)cc2)c1,IC50,[1],38.8 µM
same,IC50,[3],22.6 µM
CS(=O)(=O)c1ccc(-c2cc3ncnc(Nc4ccc(CC(=O)Nc5ccc(F)c(Cl)c5)cc4)c3s2)cc1,IC50,[3],200 µM
O=C(c1ccc(Nc2ncnc3ccsc23)cc1)N1CCCCC1,IC50,[1],150 µM
same,inhibition,[10],16.5%
Cn1nc(C(C)(C)C)cc1NC(=O)Cc1ccc(-c2ncnc3ccsc23)cc1,IC50,[1],25.2 µM
same,inhibition,[10],31.4%
